Measured values as given in US20180162862A1 (President and Fellows of Harvard College, priority 2015, published 2018).
≈ marks a conversion by molar mass, not a printed value. Read-outs that look alike come from different tables or passages of the source. One block for each compound: values may come before it.

What was measured:
[1] = target: T1, S. aureus SgtB (Staphylococcus aureus, UniProt Q99T05); assay: Dose-dependent displacement of probe CMG121 from S. aureus SgtB by fluorescence polarization; type: binding; set-up: made in house
Description: (§1) I. Dose-Dependent Displacement of CMG121 from S. aureus SgtB by Fluorescence Polarization
(§2) A black 384 well plate (Corning NBS Low Volume No. 3820) was filled (10 μL per well) with an equilibrated solution containing 10 mM TRIS (pH=8.0), 100 mM NaCl, 75 nM CMG121, and 1.0-1.5 μM S. aureus SgtB (depending on protein batch). Due to presence of 8 mM CHAPS detergent in the buffer of the S. aureus SgtB stock, the final assay solution contains 100-160 μM CHAPS. Using an HP D300 Digital Dispenser, for each compound a 1/1 dilution series (12 wells) of the primary hit compound in DMSO (normalized to 1 μL with DMSO) was prepared and added to the aforementioned assay solution. The plate was incubated at 4° C. for 30 min and read with a Perkin Elmer EnVision microplate reader (FP-read out, excitation: 480 nm; emission: 535 nm).
(§3) FIGS. 10A-E show values of reduction of fluorescence polarization for exemplified compounds. […] In the primary assay, FP was read after 30 min at 4° C., compound concentration was ca. 100 μM, and 90% reduction in FP was threshold for scoring hits (Gampe et al., J. Am. Chem. Soc. 2013, 135 (10), 3776-3779; U.S. Provisional Patent Application, U.S. Ser. No. 61/621,229, filed on Apr. 6, 2012; International Application No. PCT/US2013/030800 filed on Mar. 13, 2013).
(§4) The values were determined in two independent experiments. IC50=10 μM; Hill slope: −0.92.

[2] = system: MSSA Newman; assay: MIC test in TSB medium with MTT staining, MSSA Newman; type: cell-based, Staphylococcus aureus; settings: TSB, 37° C., MTT staining after 22 h
Description: MIC Test (Methicillin Susceptible Staphylococcus aureus (MSSA Newman))
Overnight cultures of MSSA Newman were grown up in TSB medium at 37° C. The cultures obtained were normalized with TSB to OD600=0.6 and diluted 100-fold. 1.5 μL of a dilution series of Example Compounds in DMSO (100×, in duplicate), and the diluted bacterial culture (150 μL) was added to wells of a sterile, clear 96 well plate and incubated at 37° C.

[3] = system: MSSA NE1; assay: MIC test in TSB medium with MTT staining, MSSA NE1; type: cell-based, Staphylococcus aureus
Description: MIC Test (Methicillin Susceptible Staphylococcus aureus (MSSA Newman) and MSSA NE1)
Overnight cultures of MSSA Newman and MSSA NE1 were grown up in TSB medium at 37° C. The cultures obtained were normalized with TSB to O600=0.6 and diluted 100-fold. A sterile, clear 96 well plate was charged with 1.5 μL of a dilution series compound 1882L04 in DMSO (100×, in duplicate), and the diluted bacterial culture was added (150 μL). Moenomycin at a final concentration of 2.3 μM was used as positive control.

[4] = target: T1, S. aureus SgtB; assay: Michaelis-Menten kinetics of lipid II polymerization by S. aureus SgtB in the presence of 1882L04; type: biochemical; set-up: made in house
Description: (ii) Determination of KM and vmax for Polymerization of Lipid II by S. aureus SgtB in the Presence of 1882L04
The polymerization reaction was initiated by addition of radioactively labeled lipid II (1 μL, 100 μM, ^14C/^12C=1/3; for a final concentration of 10 μM=KM). […] This ratio was multiplied with the concentration of lipid II used to obtain the amount of lipid II in PG in μM. This value was devided by 1200 s to obtain the reaction rate v in μM/s, which was plotted vs. concentration of lipid II.

[5] = system: S. aureus RN4220; assay: Growth (CFU) of S. aureus RN4220 in the presence of compound; type: cell-based; settings: S. aureus RN4220, 1-6 h
[6] = target: T1, S. aureus SgtB; settings: read-out: IC50, in vitro inhibition of S. aureus SgtB; 50 nM SgtB, 14C-lipid II, 25 min at room temperature, two independent experiments
Description: In Vitro Inhibition of Polymerization of Lipid II by PGTs
(i) In Vitro Inhibition of S. aureus SgtB:
Then ^14C-labelled lipid II (1 μL, 40 μM, ^14C/^12C 1/3) was added and the polymerization reaction was allowed to proceed for 25 min at room temperature. The reaction was quenched with 10 μL of a solution of moenomycin (1 μM) in 10% triton-X reduced and the remaining lipid II was separated from peptidoglycan (PG) using paper strip chromatography (isobutyric acid/1M NH4OH 5/3). Using a scintillation counter the ratio of radioactivity in PG to total radioactivity was determined and plotted vs. inhibitor concentration. IC50 values were determined using the curve fitting program GraphPad Prism 5.0 (GraphPad Software, Inc.; La Jolla, Calif., USA).

[7] = system: S. aureus RN4220; settings: S. aureus RN4220 grown with 65 ug/mL for 22 h, repeated
Description: A liquid culture of wild-type S. aureus RN4220 was grown up in the presence of 1882L04 (65 ug/mL) for 22 h. This culture was normalized to OD600=0.6, diluted 100×, and grown up in the presence of 1882L04 (65 ug/mL) and DMSO. The cultures obtained after 22 h were treated as mentioned before and grown up again.

[8] = system: S. aureus NEI; assay: TEM imaging of S. aureus NE1 treated with compound; type: cell-based
Excerpt: FIGS. 7A and 7B show TEM imaging of S. aureus NEI treated with compound 1882L04.

[9] = system: E. faecalis PBP2a; assay: In vitro inhibition of polymerization of 14C-lipid II by E. faecalis PBP2a; type: biochemical; settings: 50 nM PBP2a, 25 min at room temperature
Description: (ii) In Vitro Inhibition of E. faecalis PBP2a
Solutions of the E. faecalis PBP2a (50 nM) in 50 mM HEPES (pH=7.5), 10 mM CaCl2, and 1000 U/min PenG (8 μL) were incubated with DMSO solutions containing the inhibitor of interest in different concentrations (1 μL) for 20 min. Then ^14C-labelled lipid II (1 μL, 40 μM, ^14C/^12C 1/3) was added and the polymerization reaction was allowed to proceed for 25 min at room temperature.

[10] = target: T2, S. aureus SgtB (SgtB ΔTM) (Staphylococcus aureus, UniProt Q99T05); assay: Dose-dependent displacement of probe CMG121 from S. aureus SgtB by fluorescence polarization; type: binding; settings: 75 nM CMG121, 1.0-1.5 μM SgtB, pH 8.0, 30 min at 4° C., read-out: SgtB (FP, probe CMG121 displacement) IC50
T2 construct: SgtB ΔTM of S. aureus; made in house
Description: FIGS. 10A to 10E show dose-dependent displacement of probe CMG121 from S. aureus SgtB with exemplified compounds determined by fluorescence polarization.
All of the references are incorporated by reference herein. • SgtB ΔTM of S. aureus (referred to as “SgtB”), • PBP2a (A68-N728) of E. faecalis (referred to as “PBP2a”)
Probe compound CMG121 was prepared as previously described (Gampe et al., J. Am. Chem. Soc. 2013, 135 (10), 3776-3779; U.S. Provisional Patent Application Nos. 61/621,229 filed on Apr. 6, 2012).
as §1, §2, §3, §4

[11] = system: S. aureus ATCC 29213; assay: MIC test according to CLSI M7-A9, S. aureus ATCC 29213; type: cell-based; settings: Staphylococcus aureus, ATCC29213, CLSI M7-A9, CAMHB
In short: (§5)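 Per CLSI M7-A9, DMSO stocks diluted in cation-adjusted Mueller Hinton broth, plates incubated 24 h at 37 °C in air. MIC is the lowest concentration giving complete inhibition of visible growth, read visually and at 600 nm.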

[12] = system: H. influenzae ATCC 49247; assay: MIC test according to CLSI M7-A9, H. influenzae ATCC 49247; type: cell-based; settings: Haemophilus influenzae, ATCC49247; CLSI M7-A9, Haemophilus Test Medium, 24 h
Description: MIC Test (H. influenzae ATCC 49247)
Susceptibility testing of H. influenzae ATCC 49247 was performed according to Clinical Laboratory Standard Institute (CLSI) guidelines M7-A9. Test articles were stored at room temperature prior to use, then dissolved in filtered sterile DMSO. Stock DMSO solutions were diluted further in Haemophilus Test Medium (HTM) to provide appropriate test concentrations. Cultures of H. influenzae ATCC 49247 were added in accordance with CLSI guidelines and plates incubated at 37° C. in air for 24 h. Endpoints were determined visually (and by spectrophotometer at 600 nm) and the minimum inhibitory concentration (MIC) defined as the lowest concentration of test articles resulting in complete inhibition of visible bacterial growth.

[13] = system: S. aureus ATCC 43300; assay: MIC test according to CLSI M7-A9, S. aureus ATCC 43300; type: cell-based; settings: Staphylococcus aureus, ATCC43300, CLSI M7-A9, CAMHB
In short: as §5

[14] = system: S. aureus Newman; assay: MIC test according to CLSI M7-A9, S. aureus Newman; type: cell-based; settings: Staphylococcus aureus, CLSI M7-A9, CAMHB, 24 h (Table 3), read-out: S. aureus ATCC Newman MIC
In short: as §5

[15] = 24 h (Table 2), read-out: S. aureus ATCC 29213 MIC at 24 h
[16] = 24 h (Table 2), read-out: S. aureus ATCC 43300 MIC at 24 h
[17] = 24 h (Table 3), read-out: S. aureus ATCC 29213 MIC

SMILES: Cc1cccc(OCCCSc2nc(-c3ccc(C(C)(C)C)cc3)nc3cc(=O)[nH]n23)c1C [1882L04]
IC50 ([1]; displacement of 75 nM CMG121 from S. aureus SgtB, 30 min at 4° C., read-out: IC50 from FP Assay): 10 µM
Hill slope ([1]; displacement of CMG121 from S. aureus SgtB, two independent experiments): −0.92
MIC MSSA Newman [2]: 125 µg/mL (≈ 270 µM)
Sensitization of MSSA NE1 to compound (MIC data) [3]: sensitized
MIC MSSA NE1 ([3]; TSB, 37° C., MTT staining after 22 h): 8 µg/mL (≈ 17.3 µM)
Km ([4]; c(1882L04)=50 μM): 18.2 µM
vmax for polymerization of lipid II by SgtB ([4]; c(1882L04)=50 μM): 0.015 µM/s
Km ([4]; c(1882L04)=100 μM): 20.9 µM
vmax for polymerization of lipid II by SgtB ([4]; c(1882L04)=100 μM): 0.012 µM/s
Type of antibacterial activity (number of CFUs) [5]: bacteriostatic activity
IC50 [6]: 97 µM
Development of resistance [7]: became resistant
Cell morphology by TEM [8]: growth defects
IC50 [9]: 337 µM

SMILES: Cc1ccc(OCCCSc2nc(-c3ccc(C(C)(C)C)cc3)nc3cc(=O)[nH]n23)cc1C [Compound 1882F04]
IC50 ([10]; Figure 10F): 26 µM

SMILES: Cc1ccc(C(C)C)c(OCCSc2nc(-c3ccccc3F)nc3cc(=O)[nH]n23)c1 [Compound 1882J21]
IC50 ([10]; Figure 10F): > 200 µM

SMILES: Cc1cccc(OCCCSc2nc(-c3ccc(C(C)(C)C)cc3)nc3cc(=O)[nH]n23)c1C [Compound 1882L04]
IC50 ([10]; Figure 5): 7 µM

SMILES: Cc1ccc(-c2nc(SCCOc3ccccc3C)n3[nH]c(=O)cc3n2)cc1 [Compound 1882P19]
IC50 ([10]; Figure 10F): > 200 µM

SMILES: Cc1ccc(CSc2nc(-c3ccc(C(C)(C)C)cc3)nc3cc(=O)[nH]n23)cc1 [Entry 9]
IC50 [1]: 112 µM

SMILES: COc1ccc(CNc2nc(-c3ccc(C(C)(C)C)cc3)nc3cc(=O)[nH]n23)cc1 [Entry 14]
IC50 [1]: > 200 µM

SMILES: CNc1nc(-c2ccc(C(C)(C)C)cc2)nc2cc(=O)[nH]n12 [Entry 16]
IC50 [1]: > 200 µM

SMILES: CC(C)(C)c1ccc(-c2nc(N)n3[nH]c(=O)cc3n2)cc1 [Entry 17]
IC50 [1]: > 200 µM

SMILES: CC(C)(C)c1ccc(-c2nc(O)n3[nH]c(=O)cc3n2)cc1 [Entry 18]
IC50 [1]: 34 µM

MIC [11, 15]: 64 µg/mL (≈ 168 µM)
MIC [12]: 64 µg/mL (≈ 168 µM)
MIC [13, 16]: 64 µg/mL (≈ 168 µM)
SMILES: CN1CCC(Nc2nc(-c3ccc(C(C)(C)C)cc3)nc3cc(=O)[nH]n23)CC1 [Example 19, 2-(4-tert-butylphenyl)-4-[(1-methylpiperidin-4-yl)amino]-6H,7H-pyrazolo[1,5-a][1,3,5]triazin-7-one]

MIC [11, 15]: 8 µg/mL (≈ 18.9 µM)
MIC [12]: 32 µg/mL (≈ 75.5 µM)
MIC [13, 16]: 16 µg/mL (≈ 37.8 µM)
SMILES: CC(C)(C)c1ccc(-c2nc(NCCCOC3CCCCC3)n3[nH]c(=O)cc3n2)cc1 [Example 31, 2-(4-tert-butylphenyl)-4-{[3-(cyclohexyloxy)propyl]amino}-6H,7H-pyrazolo[1,5-a][1,3,5]triazin-7-one]

MIC [14]: 16 µg/mL (≈ 36.2 µM)
MIC [11, 17]: 16 µg/mL (≈ 36.2 µM)
MIC [12]: 16 µg/mL (≈ 36.2 µM)
MIC ([13]; 24 h (Table 3), read-out: S. aureus ATCC 43300 MIC): 16 µg/mL (≈ 36.2 µM)
SMILES: CC(C)(C)c1ccc(-c2nc(NCCNC3Cc4ccccc4C3)n3[nH]c(=O)cc3n2)cc1 [Example 90, 2-(4-tert-Butylphenyl)-4-({2-[(2,3-dihydro-1H-inden-2-yl)amino]ethyl}amino)-6H,7H-pyrazolo[1,5-a][1,3,5]triazin-7-one]

MIC [14]: 4 µg/mL (≈ 9.86 µM)
MIC [11, 17]: 8 µg/mL (≈ 19.7 µM)
MIC [12]: 16 µg/mL (≈ 39.5 µM)
SMILES: Cc1ccc(Cc2c(=O)[nH]n3c(=S)[nH]c(-c4ccc(C(C)(C)C)cc4)nc23)cn1 [Example 112, 2-(4-tert-butylphenyl)-8-[(6-methylpyridin-3-yl)methyl]-4-sulfanylidene-3H,4H,6H,7H-pyrazolo[1,5-a][1,3,5]triazin-7-one]

MIC [14]: 4 µg/mL (≈ 10.2 µM)
MIC [11, 17]: 4 µg/mL (≈ 10.2 µM)
MIC [12]: 8 µg/mL (≈ 20.4 µM)
SMILES: O=c1[nH]n2c(=S)[nH]c(C34CC5CC(CC(C5)C3)C4)nc2c1Cc1ccccc1 [Example 121, 2-(adamantan-1-yl)-8-benzyl-4-sulfanylidene-3H,4H,6H,7H-pyrazolo[1,5-a][1,3,5]triazin-7-one]

MIC [12]: 1 µg/mL (≈ 2.34 µM)
SMILES: Cc1cc(OCCCNc2nc(-c3cc[n+]([O-])cc3)nc3cc(=O)[nH]n23)ccc1Cl [Example 126, 4-(4-{[3-(4-chloro-3-methylphenoxy)propyl]amino}-7-oxo-6H,7H-pyrazolo[1,5-a][1,3,5]triazin-2-yl)pyridin-1-ium-1-olate]
